Data as given in patent publication EP4588921A1, “FREE BASE CRYSTAL FORM OF POLYCYCLIC COMPOUND OF NITROGEN-CONTAINING HETEROCYCLE, AND PREPARATION METHOD THEREFOR” (Jiangsu Hansoh Pharmaceutical Group Co., Ltd., priority 2022, dated 2024).
≈ marks a conversion by molar mass, not a printed value. Read-outs that look alike come from different tables or passages of the source.

Columns and labels:
[1] = Hygroscopicity experiment; format: physicochemical
Procedure: The hygroscopicity of the crystal form I and the crystal form II of compound 9 were investigated under different relative humidity to provide a basis for the storage of the compounds.
The crystal form I and the crystal form II of compound 9 were placed in saturated water vapor at different relative humidities to allow the compound to reach a dynamic equilibrium with the water vapor, and the percentage of weight gain after moisture absorption of the compound after equilibrium was calculated.

[2] = Solid stability experiment (related substances by HPLC); format: physicochemical
Procedure: The compound physical and chemical stability at high temperature of 60°C, high humidity of 92.5% RH and both high temperature of 50°C and high humidity of 75% RH of the free base crystal form I and the free base crystal form II were investigated to provide a basis for the storage of the compounds.
About 2 mg of the free base crystal form I and the free base crystal form II were taken respectively, and changes of related substances in the crystal forms at high temperature of 60°C, high humidity of 92.5% RH, and both high temperature of 50°C and high humidity of 75%RH for 7 days and 14 days were investigated. The changes of related substances were calculated by HPLC and the chromatographic peak area normalization method.

[3] = PK studies in animals of the free base crystal forms; format: in vivo; conditions: SD rats, plasma; for MRT inf: read-out: MRT 0-∞
Procedure: The pharmacokinetic of the free base crystal form after a single intravenous administration was studied, and the bioavailability of the free base crystal form I and the free base crystal form II after oral administration were calculated.
The free base crystal form I was suspended with 0.5% CMCC-Na aqueous solution, and the free base crystal form […] aqueous solution. After uniformity, the suspensions were administered intragastrically to rats in triplicate at a dosage of 5 mg/kg (30 mg/kg for suspension) for the free base crystal form I and a dosage of 30 mg/kg (suspension) for the free base crystal form II. The free base crystal form I was dissolved with 20% HP-β-CD aqueous solution to obtain a clear solution, and the clear solution was filtered through a filter membrane. The filtered solution was administered via injection to rats in triplicate.

[4] = Solubility experiments in different media (thermodynamic solubility); format: physicochemical; conditions: thermodynamic from solid
Description: The solubility of the free base crystal form I and the free base crystal form II in media such as pH 1.0-8.0 USP buffer, artificial simulated gastric fluid (FaSSGF), fasted-state artificial simulated intestinal fluid (FaSSIF), fed-state artificial simulated intestinal fluid (FeSSIF) and pure water was compared to provide a basis for the evaluation of drugability.

[5] = Room temperature, 92.5%RH, 7 days
[6] = Room temperature, 92.5%RH, 14 days
[7] = Sprague-Dawley (SD), rat, 2 mg/kg, IV, 2MPK, 20%HP-B-CD solution
[8] = Sprague-Dawley (SD), rat, iv, 2 mg/kg, 2MPK, 20%HP-B-CD solution
[9] = Sprague-Dawley (SD), rat, po, 5 mg/kg, 5MPK, 0.5%CMC-Na
[10] = Sprague-Dawley (SD), rat, po, 30 mg/kg, 30MPK, 0.5%CMC-Na suspension

change in the XRPD pattern (crystal form transformation) ([1]; after 2 cycles of moisture absorption and desorption at 0%-95% relative humidity): no change in the XRPD pattern | weight gain after moisture absorption ([1]; at 80%RH): about 0.3263% | % Increase in total impurity ([2]; 50°C, 75%RH, 7 days): <0.1% | % Maximum increase in single impurity ([2]; 50°C, 75%RH, 7 days): <0.1% | % Increase in total impurity ([2]; 50°C, 75%RH, 14 days): <0.1% | % Maximum increase in single impurity ([2]; 50°C, 75%RH, 14 days): <0.1% | % Increase in total impurity ([2]; 60°C, 7 days): <0.1% | % Maximum increase in single impurity ([2]; 60°C, 7 days): <0.1% | % Increase in total impurity ([2]; 60°C, 14 days): <0.1% | % Maximum increase in single impurity ([2]; 60°C, 14 days): <0.1% | % Increase in total impurity [2, 5]: <0.1% | % Maximum increase in single impurity [2, 5]: <0.1% | % Increase in total impurity [2, 6]: <0.1% | % Maximum increase in single impurity [2, 6]: <0.1% | Tmax ([3]; PO, 30MPK, 0.5%CMC-Na suspension): 2.0 h | C0 [3, 7]: 2910 ng/mL | clearance [3, 7]: 15 mL/min/kg | Vd ([3]; Sprague-Dawley (SD), rat, 2 mg/kg, IV, 2MPK, 20%HP-B-CD solution, read-out: Vss): 0.8 L/kg | Tmax ([3]; Sprague-Dawley (SD), rat, 5 mg/kg, PO, 5MPK, 0.5%CMC-Na, read-out: tmax): 0.5 h | AUC(0-inf) [3, 8]: 2280 ng·h/mL | AUC(0-t) [3, 8]: 2280 ng·h/mL | half-life [3, 8]: 0.9 h | MRT inf ([3]; Sprague-Dawley (SD), rat, iv, 2 mg/kg, IV, 2MPK, 20%HP-B-CD solution): 0.9 h | AUC(0-inf) [3, 9]: 2410 ng·h/mL | AUC(0-t) [3, 9]: 2390 ng·h/mL | Cmax [3, 9]: 787 ng/mL | bioavailability [3, 9]: 7% | half-life [3, 9]: 1.2 h | MRT inf ([3]; Sprague-Dawley (SD), rat, po, 5 mg/kg, PO, 5MPK, 0.5%CMC-Na): 2.2 h | AUC(0-inf) [3, 10]: 31000 ng·h/mL | AUC(0-t) [3, 10]: 28400 ng·h/mL | Cmax [3, 10]: 6010 ng/mL | bioavailability [3, 10]: 90.4% | half-life [3, 10]: 1.9 h | MRT inf ([3]; Sprague-Dawley (SD), rat, po, 30 mg/kg, PO, 30MPK, 0.5%CMC-Na suspension): 3.8 h | solubility at 2 h ([4]; FaSSCoF, 37 °C, fassgf or other biorelevant, FaSSCoF, read-out: Solubility of free base crystal form I): 118 µg/mL (≈ 253 µM) | solubility at 2 h ([4]; FaSSGF (artificial simulated gastric fluid), 37 °C, fassgf or other biorelevant, FaSSGF, read-out: Solubility of free base crystal form I): 269 µg/mL (≈ 577 µM) | solubility at 2 h ([4]; FaSSIF, 37 °C, fassif, FaSSIF, read-out: Solubility of free base crystal form I): 247 µg/mL (≈ 529 µM) | solubility at 2 h ([4]; FeSSCoF, 37 °C, fassgf or other biorelevant, FeSSCoF, read-out: Solubility of free base crystal form I): 182 µg/mL (≈ 390 µM) | solubility at 2 h ([4]; FeSSIF, 37 °C, fessif, FeSSIF, read-out: Solubility of free base crystal form I): 311 µg/mL (≈ 667 µM) | solubility at 2 h ([4]; USP buffer pH 1.0, 37 °C, pH 1, simulated gastric fluid, pH 1.0, read-out: Solubility of free base crystal form I): 799 µg/mL (≈ 1710 µM) | solubility at 2 h ([4]; USP buffer pH 2.0, 37 °C, pH 2, simulated gastric fluid, pH 2.0, read-out: Solubility of free base crystal form I): 141 µg/mL (≈ 302 µM) | solubility at 2 h ([4]; USP buffer pH 3.0, 37 °C, pH 3, aqueous buffer, pH 3.0, read-out: Solubility of free base crystal form I): 87 µg/mL (≈ 186 µM) | solubility at 2 h ([4]; USP buffer pH 4.5, 37 °C, pH 4.5, aqueous buffer, pH 4.5, read-out: Solubility of free base crystal form I): 80 µg/mL (≈ 171 µM) | solubility at 2 h ([4]; USP buffer pH 6.8, 37 °C, pH 6.8, aqueous buffer, pH 6.8, read-out: Solubility of free base crystal form I): 81 µg/mL (≈ 174 µM) | solubility at 2 h ([4]; USP buffer, 37 °C, pH 4, aqueous buffer, pH 4.0, read-out: Solubility of free base crystal form I): 73 µg/mL (≈ 156 µM) | solubility at 2 h ([4]; USP buffer, 37 °C, pH 5, aqueous buffer, pH 5.0, read-out: Solubility of free base crystal form I): 88 µg/mL (≈ 189 µM) | solubility at 2 h ([4]; USP buffer, 37 °C, pH 6, aqueous buffer, pH 6.0, read-out: Solubility of free base crystal form I): 70 µg/mL (≈ 150 µM) | solubility at 2 h ([4]; USP buffer, 37 °C, pH 7, aqueous buffer, pH 7.0, read-out: Solubility of free base crystal form I): 75 µg/mL (≈ 161 µM) | solubility at 2 h ([4]; USP buffer, 37 °C, pH 8, aqueous buffer, pH 8.0, read-out: Solubility of free base crystal form I): 58 µg/mL (≈ 124 µM) | solubility at 2 h ([4]; water, 37 °C, water, H2O, read-out: Solubility of free base crystal form I): 91 µg/mL (≈ 195 µM)
Compound: CC(C)(O)c1nc(N2C[C@H]3CN(C(=O)c4c(F)cccc4-c4ncccn4)C[C@H]3C2)ncc1F [free base crystal form I, ((3aR,6aS)-5-(5-fluoro-4-(2-hydroxyprop-2-yl)pyrimidin-2-yl)hexahydropyrrolo [3,4-c]pyrrol-2(1H)-yl)(2-fluoro-6-(pyrimidin-2-yl)phenyl)methanone]
